Measured values from patent publication US20250302974A1, “LECTIN-DRUG CONJUGATES” (UNICHEM LABORATORIES LIMITED, priority 2021, published 2025).
Square brackets hold non-standard residues; d marks the D form. Peptide text beside a SMILES is read from it. * marks the point of attachment. Dolaproine = CO[C@@H]([C@@H]1CCCN1)[C@@H](C)C(=O)O; Dil = CC[C@H](C)[C@H](NC)[C@@H](CC(=O)O)OC; X1 = C[C@@H](N*)[C@@H](O)c1ccccc1; NMeV = CN[C@H](C(=O)O)C(C)C

Columns and labels:
Type in all cases: cell-based
[1] = system: PA-1 cells; experiment: MTT cytotoxicity assay, PA-1 ovary; settings: Homo sapiens
Description: (§1) The Untreated cells were used as Control. […] Cells were incubated for 3 h at 37° C. The supernatant was aspirated.
(§2) The % Cytotoxicity was calculated using the formula: […]
(§3) Selectivity Index was calculated using the formula:
(§4) SI=IC50 in Normal cell/IC50 in cancer cell.

[2] = system: human urinary bladder cancer cell line (T-24); experiment: Cytotoxicity assay, cell titer glow luminescence, 72 h; settings: 72 h
Description: (§5) T-24 Cell line were cultured in McCoy's 5a Medium Modified supplemented with 10% FBS and the PA-1 Cell line was cultured in EMEM Media supplemented with 10% FBS. The assay was performed by plating 5,000 cells/well and incubated at 37° C. overnight. […] Each concentration was added in triplicate and media-only wells used as a control. After incubation for 72 h cell titer glow (Promega) reagent (50 μL) was added to each well and the plates shaken for 5 mins and the luminescence was recorded. Percent viability was determined by dividing luminescence of the treated well by the non-treated well and multiplying by 100. Data was analysed using non-linear regression with a logarithmic scale.
(§6) 5,000 cells/well were plated and incubated at 37° C. overnight. Conjugates/vehicle control dilutions were made in respective media and added to cells. Volume added: 50 uL to each well. Starting treatment concentration was 1 uM for Conjugate of formula 16 and 18, and control SEQ ID NO: 5 alone and 10% for vehicle control (1×PBS with 20% DMA) and then diluted 10-fold down for a total of 11 treatment dilutions. Each concentration was analysed in triplicates. Media-only wells was used as a control to calculate percent viability. Cell titer glow reagent (volume: 50 uL) was added to each well, the plate was shaken for 5 mins and the luminescence was recorded. Drug Treatment Time: 72 hours. Percent viability was calculated by dividing the luminescence signal obtained for each treated well by the untreated well (media-only control) and multiplying by 100.

[3] = system: ovarian cancer cell line (PA-1); experiment: as above; settings: 72 h
Description: as §5, §6

[4] = system: T-24 cells; experiment: Cytotoxicity (cell titer glo, 72 h) human urinary bladder cancer cell line T-24; settings: T-24 cell line
Description: as §5
(§7) 5,000 cells/well were plated and incubated at 37° C. overnight. Conjugates/vehicle control dilutions were made in respective media and added to cells. Volume added: 50 uL to each well. […] Each concentration was analysed in triplicates. […] Cell titer glow reagent (volume: 50 uL) was added to each well, the plate was shaken for 5 mins and the luminescence was recorded. […] Percent viability was calculated by dividing the luminescence signal obtained for each treated well by the untreated well (media-only control) and multiplying by 100.

[5] = system: PA-1 cells; experiment: Cytotoxicity (cell titer glo, 72 h) ovarian cancer cell line PA-1; settings: Homo sapiens, PA-1 cell line
Description: as §5, §7

[6] = system: HT29 cells; experiment: MTT cytotoxicity assay, HT29 colon; settings: Homo sapiens, HT-29
Description: as §1, §2, §3, §4

[7] = system: MG-63 cells; experiment: MTT cytotoxicity assay, MG-63 bone; settings: Homo sapiens, MG-63, 48 h
Description: as §1, §2, §3, §4

[8] = system: U251 MG cells; experiment: MTT cytotoxicity assay, U251 MG brain; settings: Homo sapiens
Description: as §1, §2, §3, §4

CC[C@H](C)[C@@H]([C@@H](CC(=O)N1CCC[C@H]1[C@H](OC)[C@@H](C)C(=O)N[C@H](C)[C@@H](O)c1ccccc1)OC)N(C)C(=O)[C@@H](NC(=O)[C@@H](NC)C(C)C)C(C)C [MMAE, monomethyl auristatin E] (H-[NMeV]V[Dil][Dolaproine]-X1)
IC50 ([1]; PA-1, 48 h): 30.1 nM | cytotoxicity at 0.0001 µM ([1]; PA-1, 0.0001 μm, 48 h, read-out: Percent cytotoxicity wrt control): 13.4% | cytotoxicity at 0.001 µM ([1]; PA-1, 0.001 μm, 48 h, read-out: Percent cytotoxicity wrt control): 57.5% | cytotoxicity at 0.01 µM ([1]; PA-1, 0.01 μm, 48 h, read-out: Percent cytotoxicity wrt control): 50% | cytotoxicity at 0.1 µM ([1]; PA-1, 0.1 μm, 48 h, read-out: Percent cytotoxicity wrt control): 57.5% | cytotoxicity at 1 µM ([1]; PA-1, 1 μm, 48 h, read-out: Percent cytotoxicity wrt control): 61.7% | cytotoxicity at 10 µM ([1]; PA-1, 10 μm, 48 h, read-out: Percent cytotoxicity wrt control): 58.3% | IC50 [2]: 0.24 nM | IC50 [3]: 3.23 nM | IC50 [4]: 0.24 nM | IC50 [5]: 3.23 nM | cytotoxicity at 0.0001 µM ([6]; HT29, 0.0001 μm, 48 h, read-out: Percent cytotoxicity wrt control): 44.1% | cytotoxicity at 0.001 µM ([6]; HT29, 0.001 μm, 48 h, read-out: Percent cytotoxicity wrt control): 44.6% | cytotoxicity at 0.01 µM ([6]; HT29, 0.01 μm, 48 h, read-out: Percent cytotoxicity wrt control): 50.6% | cytotoxicity at 0.1 µM ([6]; HT29, 0.1 μm, 48 h, read-out: Percent cytotoxicity wrt control): 50.4% | cytotoxicity at 1 µM ([6]; HT29, 1 μm, 48 h, read-out: Percent cytotoxicity wrt control): 51.9% | cytotoxicity at 10 µM ([6]; HT29, 10 μm, 48 h, read-out: Percent cytotoxicity wrt control): 55.9% | IC50 ([6]; HT29, 48 h): 50 nM | IC50 [7]: 0.1 nM | cytotoxicity at 0.0001 µM ([8]; U-251, 0.0001 μm, 48 h, read-out: Percent cytotoxicity wrt control): 77.8% | cytotoxicity at 0.001 µM ([8]; U-251, 0.001 μm, 48 h, read-out: Percent cytotoxicity wrt control): 52.5% | cytotoxicity at 0.01 µM ([8]; U-251, 0.01 μm, 48 h, read-out: Percent cytotoxicity wrt control): 58.6% | cytotoxicity at 0.1 µM ([8]; U-251, 0.1 μm, 48 h, read-out: Percent cytotoxicity wrt control): 63.1% | cytotoxicity at 1 µM ([8]; U-251, 1 μm, 48 h, read-out: Percent cytotoxicity wrt control): 64.7% | cytotoxicity at 10 µM ([8]; U-251, 10 μm, 48 h, read-out: Percent cytotoxicity wrt control): 71% | IC50 ([8]; U-251, 48 h): 0.2 nM
